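96-well plates; 48 h exposure; 5 concentrations. Endpoints by linear interpolation between flanking doses. Not reached: highest tested concentration assigned. The concentration for full growth arrest is given as TGI.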
What was measured:
Assay in all cases: DTP human tumour cell line panel, 48 h
MCF7 breast = test system: MCF7 breast
SNB-19 CNS = test system: SNB-19 CNS
NCI-H226 lung = test system: NCI-H226 lung
HOP-92 NSCLC = test system: HOP-92 NSCLC
KM12 colon = test system: KM12 colon
SF-295 CNS = test system: SF-295 CNS
T-47D breast = test system: T-47D breast
UACC-62 melanoma = test system: UACC-62 melanoma
MDA-N = test system: MDA-N
IGROV1 ovarian = test system: IGROV1 ovarian
MDA-MB-231 breast = test system: MDA-MB-231 breast
SN12C renal = test system: SN12C renal
MOLT-4 leukemia = test system: MOLT-4 leukemia
DU-145 prostate = test system: DU-145 prostate
UO-31 renal = test system: UO-31 renal
PC-3 prostate = test system: PC-3 prostate
NCI-H460 lung = test system: NCI-H460 lung
SR leukemia = test system: SR leukemia
HCC-2998 colon = test system: HCC-2998 colon
SF-539 CNS = test system: SF-539 CNS

Row | SMILES | TGI (MCF7 breast) | TGI (SNB-19 CNS) | TGI (NCI-H226 lung) | TGI (HOP-92 NSCLC) | TGI (KM12 colon) | TGI (SF-295 CNS) | TGI (T-47D breast) | TGI (UACC-62 melanoma) | TGI (MDA-N) | TGI (IGROV1 ovarian) | TGI (MDA-MB-231 breast) | TGI (SN12C renal) | TGI (MOLT-4 leukemia) | TGI (DU-145 prostate) | TGI (UO-31 renal) | TGI (PC-3 prostate) | TGI (NCI-H460 lung) | TGI (SR leukemia) | TGI (HCC-2998 colon) | TGI (SF-539 CNS)
1 | COC1/C=C/C(C)C(C(C)C(OC)C(C)CCC(=O)C(C)C(CC(=O)O)OC)OC(=O)/C=C/C=C(\C)CC(OC)CC2=CC(=O)O[C@H](C2)C(C)C(OC)CC(OC)/C=C/C(C)C(OC)C1 (some centres not stated) | > 4.35 µM | > 4.35 µM | 2.26 µM | 1.32 µM | > 4.35 µM | 2.19 µM | > 4.35 µM | 3.05 µM | > 4.35 µM | 0.435 µM | > 4.35 µM | > 4.35 µM | > 4.35 µM | > 4.35 µM | 1.22 µM | 3.1 µM | > 4.35 µM | > 4.35 µM | > 4.35 µM | 
2 | CC[C@@]1(CCC(=O)NCCc2c[nH]c3ccccc23)CCC(=O)N2CCc3c([nH]c4ccccc34)[C@H]21 | > 100 µM | > 100 µM | 77.8 µM | > 100 µM | 19.4 µM | 60.6 µM | > 100 µM | 65.3 µM | > 100 µM | 30 µM | > 100 µM | > 100 µM | 34.4 µM | > 100 µM | > 100 µM | > 100 µM | > 100 µM |  | 46.7 µM | 61.3 µM
3 | CC1CN=C(Nc2ccc(F)c(Cl)c2)S1 (configuration not stated) | > 100 µM | > 100 µM | > 100 µM | > 100 µM | > 100 µM | > 100 µM | > 100 µM | > 100 µM | > 100 µM | > 100 µM | > 100 µM |  |  | > 100 µM | 91.8 µM | > 100 µM | > 100 µM | > 100 µM | > 100 µM | > 100 µM
4 | [N-]=[N+]=CC(=O)CCC(=O)N(c1ccccc1)c1ccccc1 | > 10 µM | > 10 µM | > 10 µM | > 10 µM | > 10 µM | > 10 µM | > 10 µM |  | > 10 µM | > 10 µM | > 10 µM | > 10 µM | > 10 µM | > 10 µM | > 10 µM | > 10 µM | > 10 µM | > 10 µM |  | > 10 µM
5 | S=C(N1CCN(c2ccccc2)CC1)N1CCN(c2ccccc2)CC1 | > 100 µM | > 100 µM | > 100 µM |  | > 100 µM | > 100 µM | > 100 µM | > 100 µM | > 100 µM | > 100 µM | > 100 µM | > 100 µM | > 100 µM | > 100 µM | > 100 µM | > 100 µM | > 100 µM |  | > 100 µM | 
6 | CCCNC(=O)N1CC(CN2CCN(c3ccccc3)CC2)O/C1=N/C(=O)Nc1ccccc1 (configuration not stated) | > 100 µM | > 100 µM |  | > 100 µM | > 100 µM | > 100 µM | > 100 µM | > 100 µM | > 100 µM | > 100 µM | > 100 µM | > 100 µM | > 100 µM | > 100 µM | > 100 µM | > 100 µM | > 100 µM |  | > 100 µM | 
7 | CCCCC(=O)Nc1ccc2c(C)cc(-c3ccc(-c4cc(-c5ccc(C)cc5)cc(-c5ccc(-c6cc(C)c7ccc(NC(=O)CCCC)nc7n6)cc5)n4)cc3)nc2n1 | > 100 µM | > 100 µM |  | > 100 µM | > 100 µM | > 100 µM | > 100 µM | > 100 µM | > 100 µM |  | > 100 µM | > 100 µM | > 100 µM | > 100 µM | > 100 µM | > 100 µM | > 100 µM |  | > 100 µM | 
8 | Cc1cc2nc(N3C(=O)/C(=C/c4ccc(N(C)C)cc4)N=C3c3ccccc3)sc2cc1C | 21.3 µM | > 100 µM |  | 53 µM | > 100 µM | > 100 µM | > 100 µM | > 100 µM | 33.8 µM | > 100 µM | 96 µM | 57.8 µM | 49.8 µM | > 100 µM | 87.4 µM | 43.5 µM | > 100 µM | 41.3 µM | 37.6 µM | 53.4 µM
9 | N/C(=N\S(=O)(=O)c1cc(Cl)c(Oc2ccc([N+](=O)[O-])cc2Cl)c(Cl)c1)Nc1ccc(Cl)cc1 |  | 33.6 µM | 33.2 µM | 32.3 µM | 36.6 µM | 39.5 µM | 34.2 µM | 25.6 µM | 34.8 µM | 31.4 µM | 32.9 µM | 33.3 µM | 34.2 µM | 35.8 µM | 34.1 µM | 30.5 µM | 40.1 µM | 43.3 µM |  | 34.4 µM
10 | CSc1c(C#N)c(S)[nH]c(=O)c1C#N | > 100 µM | > 100 µM | > 100 µM |  | > 100 µM |  | > 100 µM | > 100 µM | > 100 µM | > 100 µM | > 100 µM | > 100 µM | > 100 µM | > 100 µM | 87.5 µM | > 100 µM | > 100 µM | > 100 µM | > 100 µM | > 100 µM
11 | O=C1NC(=S)NC(=O)C1=C/C=C/c1ccc([N+](=O)[O-])cc1 | 34.9 µM | 34 µM | 44.3 µM | 29.5 µM | > 100 µM | 33.1 µM | 71.4 µM | 28.7 µM | 27.7 µM | 28.2 µM | 35.5 µM | 34.7 µM | 16.6 µM | 32.7 µM | 33.5 µM | 32.2 µM | 54.3 µM |  | 35.7 µM | 28.8 µM
12 | C1CN2CCNCCN(CCN1)CC2 | > 100 µM | > 100 µM | > 100 µM | > 100 µM | > 100 µM | > 100 µM | > 100 µM | > 100 µM | > 100 µM | > 100 µM | > 100 µM | > 100 µM | > 100 µM | > 100 µM | > 100 µM | > 100 µM | > 100 µM | > 100 µM |  | > 100 µM
